Measured values taken from patent US20190010533A1, “METHODS FOR SCREENING AND SELECTING TARGET AGENTS FROM MOLECULAR DATABASES” (The Methodist Hospital System, priority 2017, published 2019).
Structures can show the parent of a compound that is named as a salt. Where two headings read alike, the source gives them in different places.

Columns and labels:
canonical pathways = assay: RNA-seq canonical pathway analysis of 3D AD #A5 cultures treated with anti-Aβ drugs; assay type: cell-based, human; settings: AD #A5 DMSO vs treated
Excerpt: FIG. 7. […] Pearson correlations of global gene expression profile among 2D undifferentiated control ReN cells, 3D control (G2#B2on), AD #A5 (#A5, moderate Aβ42/40 ratio ˜0.2), AD #D4 (#D4, high Aβ42/40 ratio, ˜1.4), and AD #H10 (#H10, extra high Aβ42/40 ratio, ˜1.7). Units are log CPM. b. Volcano plots show −log10(FDR) vs log FC distribution for G2#B2 (control) vs AD #A5 (AD), AD #A5 DMSO vs AD #A5 BSI (BACE inhibitor, Ly2886721), and AD #A5 DMSO vs AD #A5 GSM (gamma secretase modulator, SGSM15606) transcriptomic signatures. […] Canonical pathway analysis between G2#B2 and AD #A5 (Ingenuity pathway analysis, Qiagen). d. Analysis of common canonical pathways. The pathway analysis among G2#B2 vs AD #A5, AD #A5 DMSO vs AD #A5 BSI, and AD #A5 DMSO vs AD #A5 GSM. Activation z-scores indicate that majority of decreased pathways in AD #A5 are restored by BSI and/or GSM treatments. e. […]
To examine the multiple single-clonal AD models, unbiased whole genome RNA-seq analyses were performed to compare gene expression profiles among the clonal AD models with different Aβ42/40 ratios, as compared to control 3D cultures and undifferentiated 2D control cells (FIG. 7a-d). […] Differential gene expression profile of 3D AD cultures were analyzed after treating anti-Aβ drugs (BACE1 inhibitor, Ly2886721; Gamma-secretase modulator (GSM), GSM15606) (FIG. 7b). […]

pTau [1] = assay: cell-based validation in reformatted high content version of AD-in-a-dish model; settings: 26 predicted compounds tested
Excerpt: FIG. 2. Pilot SMART screen used 20 primary hits to identify 5 new compound hits that inhibit pTau (phospho-Tau or phosphorylated Tau).
Twenty-two of the 38 aforementioned screening hits had LINCS data covering the perturbation profiles for at least 4 cell lines. From these twenty-two hits, 2 were eliminated because no known drug candidates ranked high enough based on transcriptomic similarities to these two primary hits; and 3 others were removed upon inspection of the compound properties of the predictions they made, i.e., the predicted drugs may be toxic or unfit for systematic use. Thus, the 17 primary hits were used to initiate a pilot run using the SMART framework. The cMAP algorithm^7 was used to rank all compounds in the LINCSCloud, based on the similarity of transcriptomic profiles to each of the 17 primary hits. If any compound was determined by cMAP algorithm to have a similarity score larger than 90 to at least one of the primary hits, it was identified as a hit candidate. After filtering based on pharmacology features, 85 candidates predicted by 17 primary hits remained; 26 of these 85 compounds were purchased for validation after analysis for pharmacology and medical practice features.

pTau [2] = assay: primary high-content screening (HCS) for inhibition of pTau accumulation in neuron cells in 3D culture; assay type: cell-based
Excerpt: This workflow to identify the mechanisms underlying those screening hits can be used to effectively discover more compounds that can generate similar phenotype. As a proof of concept, the transcriptomic profiles hosted by the Broad Institute'[…] warehouse^28-30 through the NIH LINCS program were used in the initial study.

primary neurons = assay: time-lapse synaptogenesis assay (FM1-43 staining, KCl de-staining); assay type: cell-based
Description: FIG. 6. Time-lapse synaptogenesis assay identifies pre-synaptic hyperactivity caused by thiorphan's treatments.
A high content screening (HCS) is carried out on existing 3,000 known drugs and compounds to systematically characterize the effects of known drugs or bioactive compounds on the Parkinson's Disease (PD) induced pluripotent stem (iPS) cell model, with the aim to identify effective hits that can be validated in PD mouse models. […] Cells were stained with FM1-43 (FIG. 6A) and de-stained by KCl stimulation (FIG. 6B). Time-lapse imaging was carried out from the dye uptake until the synapses were completely de-stained. […] A similar assay is applied in iPS cells as well as neuron cell models for PD. In addition to using the prevalence of synaptogenesis as the main readout for the high content screening (HCS), the heterogeneous nature of stem cell differentiation is addressed by identifying and quantifying the prevalence of novel phenotypes other than stem cell and synaptogenesis based on morphological features. Such consideration of cell population heterogeneity brings deeper insight in the HCS and can help identify potential compounds that are causing specific type of differentiations benefiting cure of PD.

genes and pathways = assay: whole genome RNAseq analysis after compound treatment versus control; assay type: cell-based
Excerpt: FIG. 10A-10B. […] PPI information was extracted from STRING database version 10.5 with the cutoff for confidence score at 0.4.
Given ebselen and leflunomide in FIG. 9, an unbiased whole genome RNAseq analysis was used to obtain transcriptomic profiles after the treatment of each compound and compare them separately to control conditions. For both treatments, a subset of genes and pathways show significant change (|log FC|>1.5) in the same direction over control condition. […] These 22 genes have 102 PPI pairs among them, and there are 7 genes directly connected to APP (coding Aβ) or MAPT (coding Tau).
It's worth noting that the enrichment of immune and inflammatory related pathway changes is consistent with the characteristics of the 3D cell model, as this system contains astrocytes, which is one of the brain innate immune cells. […] Also, neuroinflammatory pathways are highly unregulated in high Abeta42/40 lines (D4 and H10) as compared to A5 (similar to GA2) (data not shown).

p-tau (pSer396/Ser404) = assay: quantitative immunofluorescence staining in 3D AD models; assay type: cell-based, human; settings: 5 μM for 3 weeks
Excerpt: (§1) FIG. 9. Validation of primary hit candidates. Primary hit candidates were confirmed using Western blot analysis (a) and quantitative immunofluorescence staining in 3D AD models with high Aβ42/40 ratios (#HReN and #A4H1) (b). PHF1 pSer396/Ser404 tau antibody was used to detect changes in phospho tau in 3D AD #HReN cells treated with DMSO vehicle, ebselen, or leflunomide.
(§2) In addition to MSD Mesoscale ELISA shown in FIG. 8, quantitative Western blot and immunofluorescence analysis were used to validate candidate drugs. […] Ebselen and leflunomide are compounds screened from original HCS screening of […] biologically active/FDA-approved drug library. […] Moreover, quantitative immunofluorescence staining was used to analyze p-tau changes after treating these compounds.

3D AD models = assay: cellular viability and neurite networks in the immunofluorescence study; assay type: cell-based, human; settings: 5 μM for 3 weeks
Excerpt: as §2

[3] = tested on: insoluble p-tau species (pSer396/Ser404, pThr181); assay: Western blot analysis in 3D AD models with high Aβ42/40 ratios; assay type: cell-based, human; settings: various concentrations
Excerpt: as §1, §2

COc1nc(-c2cc(C)c(NC(C)c3ccc(F)cc3)nn2)ccc1-n1cnc(C)c1 (stereo not shown) [SGSM15606]
pathways decreased in AD #A5 after treatment (activation z-scores) (canonical pathways): restored

NC1=N[C@@]2(c3cc(NC(=O)c4ccc(F)cn4)ccc3F)COC[C@H]2CS1 [Ly2886721]
pathways decreased in AD #A5 after treatment (activation z-scores) (canonical pathways): restored

C1CCC(C(CC2CCCCN2)C2CCCCC2)CC1 (stereo not shown) [Perhexiline, perhexiline maleate]
inhibition of pTau in validation (pTau [1]): successful predictions

N=C(N)c1ccc(OCCCCCOc2ccc(C(=N)N)cc2)cc1 [pentamidine]
inhibition of pTau accumulation (primary screen hit status) (pTau [2]): top-3 hits

C/C(=C\c1ccc(C(=O)O)cc1)c1ccc2c(c1)C(C)(C)CCC2(C)C [TTNPB]
inhibition of pTau accumulation (primary screen hit status) (pTau [2]): primary hit

O=C(O)CNC(=O)C(CS)Cc1ccccc1 (stereo not shown) [thiorphan]
pre-synaptic activity (FM dye uptake, automatic image quantification) (primary neurons): causes pre-synaptic hyperactivity

Cc1oncc1C(=O)Nc1ccc(C(F)(F)F)cc1 [leflunomide]
pathways changed after treatment (genes and pathways; 5 of 6 pathways connected to 12 down-regulated genes): significantly down-regulated | genes with significant change versus control (genes and pathways; |log FC|>1.5, shared by both treatments): 15 down-regulated and 7 up-regulated genes | p-tau (pSer396/Ser404) accumulation (p-tau (pSer396/Ser404)): robustly decreased | cellular viability and neurite networks (3D AD models): without affecting | insoluble p-tau species (pSer396/Ser404, pThr181) [3]: significantly decreased

CC[N+](CC)(CC)CCOc1ccc(/C=C/c2ccccc2)cc1 [mg624]
inhibition of pTau accumulation (primary screen hit status) (pTau [2]): top-3 hits

Oc1c(Cl)cc(Cl)c2cccnc12 [chloroxine]
inhibition of pTau in validation (pTau [1]): validated hits

Nc1ccc(-c2nc3ccc(-c4nc5ccc(N)cc5[nH]4)cc3[nH]2)cc1 [Ro90-7501]
inhibition of pTau accumulation (primary screen hit status) (pTau [2]): primary hits

ivermectin
inhibition of pTau accumulation (primary screen hit status) (pTau [2]): top-3 hits | inhibition of pTau accumulation (primary screen hit status) (pTau [2]; listed as Ivermectin): most significant phenotype
